Where “and” joins values, the source holds several entries; their conditions need not be identical. Identical values can stand only once.
What was measured:
CYP1A2 = target: T1, CYP1A2 (Homo sapiens, UniProt P05177); assay: Reversible CYP inhibition in human liver microsomes; conditions: for activity at 0.1 µM / activity at 0.214 µM / activity at 0.979 µM / activity at 2.09 µM / activity at 4.48 µM / activity at 20.5 µM / activity at 43.8 µM / activity at 93.5 µM / activity at 200 µM: pH 7.4, Percent of Control Activity
T1 sequence (P05177 1-516): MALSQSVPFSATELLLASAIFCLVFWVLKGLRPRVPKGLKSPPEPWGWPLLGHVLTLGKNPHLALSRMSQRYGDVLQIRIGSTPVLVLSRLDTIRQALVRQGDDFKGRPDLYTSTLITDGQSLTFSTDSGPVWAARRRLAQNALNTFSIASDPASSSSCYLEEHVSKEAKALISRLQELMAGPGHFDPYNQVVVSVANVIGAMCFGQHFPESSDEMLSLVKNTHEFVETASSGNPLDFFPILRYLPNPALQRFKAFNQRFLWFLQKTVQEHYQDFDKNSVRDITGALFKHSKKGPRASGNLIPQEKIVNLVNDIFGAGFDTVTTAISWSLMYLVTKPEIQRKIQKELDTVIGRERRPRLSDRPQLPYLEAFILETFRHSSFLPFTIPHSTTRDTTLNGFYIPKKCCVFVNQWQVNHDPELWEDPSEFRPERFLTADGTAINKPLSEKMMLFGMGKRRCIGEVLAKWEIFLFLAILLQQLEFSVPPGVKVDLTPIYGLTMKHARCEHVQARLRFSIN

CYP2C19 = CYP2C19 (Homo sapiens, UniProt P33261); assay: as above
Chain of CYP2C19 (P33261 whole entry): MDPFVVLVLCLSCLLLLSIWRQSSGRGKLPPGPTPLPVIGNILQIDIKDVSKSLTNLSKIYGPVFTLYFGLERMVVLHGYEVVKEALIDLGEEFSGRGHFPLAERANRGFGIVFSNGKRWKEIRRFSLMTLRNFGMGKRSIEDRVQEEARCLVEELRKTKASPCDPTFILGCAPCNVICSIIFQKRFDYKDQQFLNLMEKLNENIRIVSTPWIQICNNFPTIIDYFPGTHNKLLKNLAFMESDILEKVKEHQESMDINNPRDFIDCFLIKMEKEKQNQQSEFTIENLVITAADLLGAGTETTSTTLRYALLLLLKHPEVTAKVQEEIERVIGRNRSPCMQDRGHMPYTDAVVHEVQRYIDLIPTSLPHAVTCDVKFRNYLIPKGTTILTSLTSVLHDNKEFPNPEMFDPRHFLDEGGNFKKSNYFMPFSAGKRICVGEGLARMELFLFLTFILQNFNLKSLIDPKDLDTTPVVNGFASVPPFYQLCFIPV

COc1cccc2[nH]c(C(=O)N[C@@H](CC(C)C)C(=O)N[C@@H](C[C@@H]3CCNC3=O)C(=O)CO)cc12 [PF-00835231]
Percent of Control Activity (CYP1A2; CYP 1A2, 0.1 µM, 30-Minute Preincubation, 0.1 µM): 100.7% and 97.2%
Percent of Control Activity (CYP1A2; CYP 1A2, 0.1 µM, Zero-Minute Preincubation, 0.1 µM): 91.5%
Percent of Control Activity (CYP1A2; CYP 1A2, 0.214 µM, 30-Minute Preincubation, 0.214 µM): 101.6% and 102.2%
Percent of Control Activity (CYP1A2; CYP 1A2, 0.214 µM, Zero-Minute Preincubation, 0.214 µM): 97.3%
Percent of Control Activity (CYP1A2; CYP 1A2, 0.979 µM, 30-Minute Preincubation, 0.979 µM): 100.1% and 99.5%
Percent of Control Activity (CYP1A2; CYP 1A2, 0.979 µM, Zero-Minute Preincubation, 0.979 µM): 99.8% and 102.1%
Percent of Control Activity (CYP1A2; CYP 1A2, 2.09 µM, 30-Minute Preincubation, 2.09 µM): 98.8%
Percent of Control Activity (CYP1A2; CYP 1A2, 2.09 µM, Zero-Minute Preincubation, 2.09 µM): 90.6% and 85.1%
Percent of Control Activity (CYP1A2; CYP 1A2, 4.48 µM, 30-Minute Preincubation, 4.48 µM): 99.2% and 99.5%
Percent of Control Activity (CYP1A2; CYP 1A2, 4.48 µM, Zero-Minute Preincubation, 4.48 µM): 97.7%
Percent of Control Activity (CYP1A2; CYP 1A2, 20.5 µM, 30-Minute Preincubation, 20.5 µM): 99.6% and 97.2%
Percent of Control Activity (CYP1A2; CYP 1A2, 20.5 µM, Zero-Minute Preincubation, 20.5 µM): 95.6% and 98.0%
Percent of Control Activity (CYP1A2; CYP 1A2, 43.8 µM, 30-Minute Preincubation, 43.8 µM): 96.6% and 97.7%
Percent of Control Activity (CYP1A2; CYP 1A2, 43.8 µM, Zero-Minute Preincubation, 43.8 µM): 92.9% and 93.4%
Percent of Control Activity (CYP1A2; CYP 1A2, 93.5 µM, 30-Minute Preincubation, 93.5 µM): 90.5% and 95.8%
Percent of Control Activity (CYP1A2; CYP 1A2, 93.5 µM, Zero-Minute Preincubation, 93.5 µM): 76.6% and 87.4%
Percent of Control Activity (CYP1A2; CYP 1A2, 200 µM, 30-Minute Preincubation, 200 µM): 92.7% and 91.0%
Percent of Control Activity (CYP1A2; CYP 1A2, 200 µM, Zero-Minute Preincubation, 200 µM): 81.0% and 74.4%
IC50 (CYP1A2; human, microsomes, pH 7.4): > 200 µM
activity at 0.1 µM (CYP1A2; human, microsomes, CYP 1A2, 0.1 µM, 30-Minute Preincubation): 98%
activity at 0.1 µM (CYP1A2; human, microsomes, CYP 1A2, 0.1 µM, Zero-Minute Preincubation): 97.8%
activity at 0.214 µM (CYP1A2; human, microsomes, CYP 1A2, 0.214 µM, 30-Minute Preincubation): 96.5%
activity at 0.214 µM (CYP1A2; human, microsomes, CYP 1A2, 0.214 µM, Zero-Minute Preincubation): 98.4%
activity at 0.979 µM (CYP1A2; human, microsomes, CYP 1A2, 0.979 µM, 30-Minute Preincubation): 98.9%
activity at 0.979 µM (CYP1A2; human, microsomes, CYP 1A2, 0.979 µM, Zero-Minute Preincubation): 97.6%
activity at 2.09 µM (CYP1A2; human, microsomes, CYP 1A2, 2.09 µM, 30-Minute Preincubation): 98.3%
activity at 2.09 µM (CYP1A2; human, microsomes, CYP 1A2, 2.09 µM, Zero-Minute Preincubation): 97.8%
activity at 4.48 µM (CYP1A2; human, microsomes, CYP 1A2, 4.48 µM, 30-Minute Preincubation): 97%
activity at 4.48 µM (CYP1A2; human, microsomes, CYP 1A2, 4.48 µM, Zero-Minute Preincubation): 99.3%
activity at 20.5 µM (CYP1A2; human, microsomes, CYP 1A2, 20.5 µM, 30-Minute Preincubation): 97.1%
activity at 20.5 µM (CYP1A2; human, microsomes, CYP 1A2, 20.5 µM, Zero-Minute Preincubation): 99.4%
activity at 43.8 µM (CYP1A2; human, microsomes, CYP 1A2, 43.8 µM, 30-Minute Preincubation): 95.9%
activity at 43.8 µM (CYP1A2; human, microsomes, CYP 1A2, 43.8 µM, Zero-Minute Preincubation): 94.2%
activity at 93.5 µM (CYP1A2; human, microsomes, CYP 1A2, 93.5 µM, 30-Minute Preincubation): 89.6%
activity at 93.5 µM (CYP1A2; human, microsomes, CYP 1A2, 93.5 µM, Zero-Minute Preincubation): 84.6%
activity at 200 µM (CYP1A2; human, microsomes, CYP 1A2, 200 µM, 30-Minute Preincubation): 93.6%
activity at 200 µM (CYP1A2; human, microsomes, CYP 1A2, 200 µM, Zero-Minute Preincubation): 81.3%
Percent of Control Activity (CYP2C19; CYP 2C19, 0.1 µM, Zero-Minute Preincubation, 0.1 µM): 97.1% and 93.1%
Percent of Control Activity (CYP2C19; CYP 2C19, 0.214 µM, 30-Minute Preincubation, 0.214 µM): 94.5% and 97.7%
Percent of Control Activity (CYP2C19; CYP 2C19, 0.214 µM, Zero-Minute Preincubation, 0.214 µM): 96.9% and 95.6%

— PMC8523698, “Preclinical characterization of an intravenous coronavirus 3CL protease inhibitor for the potential treatment of COVID19” (Nature Communications, 2021)
